What all share (experiment): ≥ marks a high value that may be exact or a test limit, other limits are often not marked, values filed in µg/mL are converted to µM
For assay [1], the system named is Bacillus megaterium ATCC 19213.
For assay [2], the system named is Bacillus subtilis NBRC 3513.
Assay [3] has as its system Staphylococcus aureus NBRC 12732.
Assay [4] concerns Staphylococcus epidermidis NBRC 12933.
In assay [5] the test system is Acinetobacter baumannii.
Assay [6] concerns Enterobacter cloacae 2524.
For assay [7], the system named is Enterobacter cloacae 6780.
The subject of assay [8] is Escherichia coli 170.
For assay [9], the system named is Escherichia coli 4530.
The subject of assay [10] is Escherichia coli ATCC 25922.
Assay [11] has as its system Klebsiella pneumoniae 1625.
For assay [12], the system named is Klebsiella pneumoniae 913.
Assay [13] concerns Klebsiella pneumoniae ST258.
Assay [14] deals with Pseudomonas aeruginosa 4677.
Assay [15] concerns Pseudomonas aeruginosa ATCC 27853.
Assay [16] deals with Salmonella typhimurium.
Assay [17] relates to Staphylococcus aureus ATCC 25923.
Assay [18] concerns Streptococcus pneumoniae ATCC 49619.
The test system of assay [19] is Bacillus subtilis IFO 3134.
Assay [20] deals with Escherichia coli IFO 12734.
Assay [21] deals with Pseudomonas aeruginosa IFO 12582.
The test system of assay [22] is Staphylococcus aureus IFO 12732.
Assay [23] deals with Escherichia coli W160-37.
Assay [24] deals with Staphylococcus aureus.
Assay [25] deals with Listeria monocytogenes ATCC 19111.
In assay [26] the test system is Bacillus megaterium KCTC 1096.
Assay [27] deals with Bacillus subtilis KCTC 1918.
For assay [28], the system named is Escherichia coli KCTC 1682.
The subject of assay [29] is Proteus vulgaris.
Assay [30] relates to Pseudomonas aeruginosa KCTC 1637.
Assay [31] relates to Staphylococcus aureus KCTC 1621.
Assay [32] concerns Staphylococcus aureus A170.
For assay [33], the system named is Staphylococcus epidermidis.
Assay [34] has as its system Candida albicans ATCC 37092.
Assay [35] deals with Candida tropicalis ATCC 37097.
The subject of assay [36] is Klebsiella oxytoca ATCC 49131.
Assay [37] relates to Proteus vulgaris ATCC 49132.
The test system of assay [38] is Staphylococcus aureus ATCC 29213.

≈ marks a conversion by molar mass, not a printed value. Where “and” joins values, the source holds several entries; their conditions need not be identical. Equal entries are not always repeated.

For `CC[C@H](C)[C@H](NC(=O)[C@H](C)N)C(=O)N[C@@H](Cc1ccccc1)C(=O)N[C@H](C(=O)N[C@@H](Cc1ccccc1)C(=O)N[C@H](C(=O)N[C@@H](CCCN=C(N)N)C(=O)N[C@@H](Cc1c[nH]c2ccccc12)C(=O)N[C@@H](CC(C)C)C(=O)N[C@@H](CC(C)C)C(=O)N[C@@H](CCCCN)C(=O)N[C@@H](CC(C)C)C(=O)NCC(=O)N[C@@H](Cc1cnc[nH]1)C(=O)N[C@@H](Cc1cnc[nH]1)C(=O)NCC(=O)N[C@@H](CCCN=C(N)N)C(=O)O)[C@@H](C)CC)[C@@H](C)CC` [AIFIFIRWLLKLGHHGR], the minimum inhibitory concentration (MIC) in assay [1] was found to be 4 µM (≈ 8.31 µg/mL); in [2] it was 16 µM (≈ 33.2 µg/mL); in [3] it was 4 µM (≈ 8.31 µg/mL); in assay [4], 8 µM (≈ 16.6 µg/mL).

Regarding `CC[C@H](C)[C@H](NC(=O)CN)C(=O)N[C@@H](CC(C)C)C(=O)N[C@@H](CCCCN)C(=O)N[C@H](C(=O)N[C@H](C(=O)N[C@@H](CCCCN)C(=O)N[C@@H](CO)C(=O)N[C@H](C(=O)N[C@@H](C)C(=O)N[C@@H](CO)C(=O)N[C@@H](CCCCN)C(=O)N[C@@H](CC(C)C)C(=O)N[C@@H](CCCCN)C(=O)N[C@@H](CCCN=C(N)N)C(=O)N[C@@H](CCCCN)C(=O)N[C@@H](C)C(=O)N[C@@H](CCCCN)C(=O)O)[C@@H](C)CC)[C@@H](C)CC)[C@@H](C)O` [GILKTIKSIASKLKRKAK], the MIC in assay [5] was 2.21 µM (≈ 4.38 µg/mL); in assay [6], not below 50 µM; in [7] it was 3.12 µM (≈ 6.19 µg/mL); in assay [8], 1.56 µM (≈ 3.09 µg/mL); in assay [9], 25 µM (≈ 49.6 µg/mL); in assay [10], 1.56 µM (≈ 3.09 µg/mL). In addition, the MIC is 1.56 µM (≈ 3.09 µg/mL) in assay [11]; 3.12 µM (≈ 6.19 µg/mL) in [12]; 25.2 µM (≈ 50 µg/mL) in assay [13]; 25 µM (≈ 49.6 µg/mL) in [14]; more than 25.2 µM in assay [15]; 1.6 µM (≈ 3.17 µg/mL) in assay [16]. In addition, the values for the minimal inhibitory concentration (MIC) in [17] and in [18] were more than 25.2 µM and not below 50 µM, respectively.

As to `CC[C@H](C)[C@H](NC(=O)[C@H](C)NC(=O)[C@@H]1CCCN1C(=O)[C@@H](NC(=O)[C@@H](NC(=O)[C@H](Cc1cnc[nH]1)NC(=O)[C@H](C)NC(=O)[C@H](C)NC(=O)[C@@H](NC(=O)[C@H](CCCCN)NC(=O)[C@H](C)NC(=O)[C@H](CC(C)C)NC(=O)[C@@H](NC(=O)CNC(=O)[C@H](Cc1ccccc1)NC(=O)[C@H](CC(C)C)NC(=O)CN)C(C)C)C(C)C)C(C)C)C(C)C)C(=O)N[C@@H](C)C(=O)N[C@@H](CCCCN)C(=O)N[C@@H](Cc1cnc[nH]1)C(=O)N[C@@H](Cc1ccccc1)C(N)=O` [GLFGVLAKVAAHVVPAIAKHF], the MIC is 4 µM (≈ 8.58 µg/mL) in assay [19], 16 µM (≈ 34.3 µg/mL) in assay [20], not below 32 µM in assay [21] and 4 µM (≈ 8.58 µg/mL) in assay [22].

Regarding `CC[C@H](C)[C@H](N)C(=O)N[C@@H](CC(C)C)C(=O)N1CCC[C@H]1C(=O)N[C@@H](Cc1c[nH]c2ccccc12)C(=O)N[C@@H](CCCCN)C(=O)N[C@@H](CC(C)C)C(=O)N1CCC[C@H]1C(=O)N[C@@H](CC(C)C)C(=O)N[C@@H](CC(C)C)C(=O)N1CCC[C@H]1C(=O)N[C@@H](CC(C)C)C(=O)N[C@@H](CCCN=C(N)N)C(=O)N[C@@H](CCCN=C(N)N)C(N)=O` [ILPWKLPLLPLRR], the minimum inhibitory concentration (MIC) in assay [23] is 9.29 µM (≈ 15 µg/mL); in assay [24] it was 6.19 µM (≈ 9.99 µg/mL).

`CSCC[C@H](NC(=O)CNC(=O)[C@@H](NC(=O)[C@@H]1CCCN1C(=O)[C@H](CCSC)NC(=O)CNC(=O)[C@H](CC(N)=O)NC(=O)[C@H](CC(N)=O)NC(=O)[C@H](Cc1ccc(O)cc1)NC(=O)[C@@H](NC(=O)[C@H](CCCN=C(N)N)NC(=O)[C@H](CS)NC(=O)[C@H](CCCN=C(N)N)NC(=O)[C@H](Cc1cnc[nH]1)NC(=O)[C@H](CCCCN)NC(=O)[C@H](CCCCN)NC(=O)[C@H](CCCN=C(N)N)NC(=O)[C@@H](N)CCCCN)C(C)C)[C@@H](C)O)C(=O)N[C@@H](Cc1ccc(O)cc1)C(=O)N[C@@H](CCCN=C(N)N)C(=O)N[C@@H](Cc1c[nH]c2ccccc12)C(=O)N[C@@H](CS)C(=O)O` [KRKKHRCRVYNNGMPTGMYRWC] had a minimal inhibitory concentration (MIC) in [25] of 8 µM (≈ 22.3 µg/mL).

`CC[C@H](C)[C@H](NC(=O)[C@H](CCCCN)NC(=O)[C@H](CCCCN)NC(=O)[C@H](Cc1ccccc1)NC(=O)[C@H](CC(C)C)NC(=O)[C@H](CCCCN)NC(=O)[C@H](Cc1c[nH]c2ccccc12)NC(=O)[C@@H](N)CCCCN)C(=O)N1CCC[C@H]1C(=O)N[C@@H](CC(C)C)C(=O)N[C@@H](Cc1cnc[nH]1)C(=O)N[C@@H](CC(C)C)C(=O)N[C@@H](C)C(=O)N[C@@H](CCCCN)C(=O)N[C@@H](CCCCN)C(=O)N[C@@H](Cc1ccccc1)C(N)=O` [KWKLFKKIPLHLAKKF]: the minimum inhibitory concentration (MIC) came out at 3.12 µM (≈ 6.33 µg/mL) in [26]; 1.1 µM (≈ 2.23 µg/mL) in assay [27]; 8.84 µM (≈ 17.9 µg/mL) in [28]; 1.56 µM (≈ 3.16 µg/mL) in assay [29]; 6.25 µM (≈ 12.7 µg/mL) in assay [30]; 3.12 µM (≈ 6.33 µg/mL) in assay [31].

On to `CC[C@H](C)[C@H](NC(=O)[C@@H]1CCCN1C(=O)[C@H](CC(C)C)NC(=O)[C@@H](N)CC(C)C)C(=O)N[C@H](C(=O)N[C@@H](C)C(=O)N[C@@H](CC(N)=O)C(=O)N[C@@H](CC(C)C)C(=O)N[C@@H](CC(C)C)C(=O)N[C@@H](CCCCN)C(=O)N[C@@H](C)C(=O)N[C@@H](CC(C)C)C(=O)N[C@@H](CC(C)C)C(=O)O)C(C)C` [LLPIVANLLKALL], for which the minimal inhibitory concentration (MIC) in assay [32] stood at 3.6 µM (≈ 5 µg/mL); in [33], 7.19 µM (≈ 10 µg/mL).

Turning to `CC(C)C[C@H](NC(=O)[C@H](CCCN=C(N)N)NC(=O)[C@H](CCCN=C(N)N)NC(=O)[C@H](Cc1ccc(O)cc1)NC(=O)[C@H](CC(C)C)NC(=O)[C@@H](N)CCCN=C(N)N)C(=O)N[C@@H](Cc1ccc(O)cc1)C(=O)N[C@@H](CCCN=C(N)N)C(N)=O` [RLYRRLYR], the MIC in [34] is 9 µM and 17.4 µM; in assay [35], 1.4 µM and 3.2 µM; in assay [10], 39 µM and 33.6 µM; in [36], 14.1 µM and 13.1 µM; in [37] it was 10.2 µM and 18.4 µM; in [15], 4.1 µM and 8.7 µM. Also, in [38], the MIC is 8.1 µM and 17.5 µM.

The record behind these values is DBAASP.
